Measurements published in US9399649B2, “Compounds for treating spinal muscular atrophy” (PTC Therapeutics Inc., priority 2012, dated 2016).

What was measured:
[1] = test system: full length SMN2 minigene mRNA containing SMN2 exon 7; assay: SMN2 minigene mRNA splicing RT-qPCR assay in cultured cells; type: cell-based, human; conditions: Homo sapiens, HEK293-H; HEK293H cells stably transfected with SMN2-A minigene, 24 hours, 7-point concentration curve; concentration giving 1.5-fold full length SMN2 mRNA vs vehicle; read-out: EC1.5x for production of full length SMN2 mRNA
Method in brief: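 HEK293H cells stably carrying SMN2-A minigene treated 24 h (37 °C) with compound, 7-point 3.16-fold dilution, duplicates. Multiplex RT-qPCR on lysate with exon 7/luciferase primers and exon 7–8 junction probe (minigene-specific). Full-length transcript normalised to GAPDH by modified ΔΔCt, expressed relative to vehicle-treated cells.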

[2] = test system: Smn protein; assay: Smn protein assay in cultured cells (SMN HTRF); type: cell-based, human; conditions: SMA patient fibroblast cells (GM03813), 48 hours; for EC1.5x for Smn protein expression: 7-point concentration curve, concentration producing 1.5 times Smn protein vs DMSO vehicle; for maximum fold (Fold) increase of Smn protein: 7-point concentration data, relative to vehicle control
Method in brief: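 SMA patient fibroblasts, 5,000 per well in DMEM-10% FBS, exposed 48 h at 37° C. to a 7-point, 3.16-fold compound series in triplicate. RIPA lysates read by SMN HTRF (665/620 nm, overnight at room temperature); ΔF over blank expressed as fold of vehicle.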

melting point [°C] | Structure (SMILES) | EC (1.5-fold) [1] [µM] | EC1.5x for Smn protein expression [2] | maximum fold (Fold) increase of Smn protein [2]
231 to 236 | Cc1nc2ccc(-c3cc4ccc(N5CCN(C)CC5)cc4c(=O)o3)cc2s1 [Cpd 104, 3-(2-methyl-1,3-benzothiazol-6-yl)-7-(4-methylpiperazin-1-yl)-1H-isochromen-1-one] | 0.1 to 0.3 |  | *** (a fold increase between >1.35 and ≦1.5 is indicated by three stars (***))
229 to 235 | Cc1nc2cc(-c3cc4ccc(N5CCNCC5)cc4c(=O)o3)ccc2s1 [Cpd 106, 3-(2-methyl-1,3-benzothiazol-5-yl)-7-(piperazin-1-yl)-1H-isochromen-1-one] | 1 to 3 |  | * (A maximum fold increase of ≦1.2 is indicated by one star (*))
222 to 228 | Cc1nc2ccc(-c3cc4ccc(N5CCN(C6COC6)CC5)cc4c(=O)o3)cc2s1 [Cpd 107, 3-(2-methyl-1,3-benzothiazol-6-yl)-7-[4-(oxetan-3-yl)piperazin-1-yl]-1H-isochromen-1-one] | 0.3 to 1 |  | *** (a fold increase between >1.35 and ≦1.5 is indicated by three stars (***))
215 to 217 | CCN1CCC(c2ccc3cc(-c4cn5cc(C)nc(C)c5n4)oc(=O)c3c2)CC1 [Cpd 115, 3-(6,8-dimethylimidazo[1,2-a]pyrazin-2-yl)-7-(1-ethylpiperidin-4-yl)-1H-isochromen-1-one] | ≤ 0.1 | **** (an EC1.5×≦0.3 nM is indicated by four stars (****)) | ***** (a fold increase >1.65 is indicated by five stars (*****))
204 to 206 | CCCN1CCC(c2ccc3cc(-c4cn5cc(C)nc(C)c5n4)oc(=O)c3c2)CC1 [Cpd 116, 3-(6,8-dimethylimidazo[1,2-a]pyrazin-2-yl)-7-(1-propylpiperidin-4-yl)-1H-isochromen-1-one] | ≤ 0.1 | *** (an EC1.5× between >0.3 nM and ≦1 nM is indicated by three stars (***)) | **** (a fold increase between >1.5 and ≦1.65 is indicated by four stars (****))
227 to 229 | Cc1cn2cc(-c3cc4ccc(C5CCN(C(C)C)CC5)cc4c(=O)o3)nc2c(C)n1 [Cpd 117, 3-(6,8-dimethylimidazo[1,2-a]pyrazin-2-yl)-7-[1-(propan-2-yl)piperidin-4-yl]-1H-isochromen-1-one] | ≤ 0.1 | *** (an EC1.5× between >0.3 nM and ≦1 nM is indicated by three stars (***)) | ***** (a fold increase >1.65 is indicated by five stars (*****))
225 to 227 | Cc1cn2cc(-c3cc4ccc(C5CCN(C6COC6)CC5)cc4c(=O)o3)nc2c(C)n1 [Cpd 119, 3-(6,8-dimethylimidazo[1,2-a]pyrazin-2-yl)-7-[1-(oxetan-3-yl)piperidin-4-yl]-1H-isochromen-1-one] | 0.1 to 0.3 | *** (an EC1.5× between >0.3 nM and ≦1 nM is indicated by three stars (***)) | ***** (a fold increase >1.65 is indicated by five stars (*****))

The next lines start with the compound.

Structure (SMILES) | melting point [°C] | EC (1.5-fold) [1] [µM] | EC1.5x for Smn protein expression [2] | maximum fold (Fold) increase of Smn protein [2]
Cc1nc(Cl)cn2cc(-c3cc4ccc(N5CCN(C(C)C)CC5)cc4c(=O)o3)nc12 [Cpd 101, 3-(6-chloro-8-methylimidazo[1,2-a]pyrazin-2-yl)-7-[4-(propan-2-yl)piperazin-1-yl]-1H-isochromen-1-one] | 286 to 291 | 0.1 to 0.3 | *** (an EC1.5× between >0.3 nM and ≦1 nM is indicated by three stars (***)) | ***** (a fold increase >1.65 is indicated by five stars (*****))
CCN1CCN(c2ccc3cc(-c4cn5cc(Cl)nc(C)c5n4)oc(=O)c3c2)CC1 [Cpd 102, 3-(6-chloro-8-methylimidazo[1,2-a]pyrazin-2-yl)-7-(4-ethylpiperazin-1-yl)-1H-isochromen-1-one] | 229 to 234 | 0.1 to 0.3 |  | *** (a fold increase between >1.35 and ≦1.5 is indicated by three stars (***))
Cc1nc2ccc(-c3cc4ccc(N5CCNCC5)cc4c(=O)o3)cc2s1 [Cpd 103, 3-(2-methyl-1,3-benzothiazol-6-yl)-7-(piperazin-1-yl)-1H-isochromen-1-one] | 271 to 276 | ≤ 0.1 | **** (an EC1.5×≦0.3 nM is indicated by four stars (****)) | **** (a fold increase between >1.5 and ≦1.65 is indicated by four stars (****))
Cc1nc2ccc(-c3cc4ccc(N5CCN(C(C)C)CC5)cc4c(=O)o3)cc2s1 [Cpd 105, 3-(2-methyl-1,3-benzothiazol-6-yl)-7-[4-(propan-2-yl)piperazin-1-yl]-1H-isochromen-1-one] | 222 to 228 | 0.1 to 0.3 |  | ** (a fold increase between >1.2 and ≦1.35 is indicated by two stars (**))
Cc1nc(Cl)cn2cc(-c3cc4ccc(N5CCN[C@@H](C)C5)cc4c(=O)o3)nc12 [Cpd 108, 3-(6-chloro-8-methylimidazo[1,2-a]pyrazin-2-yl)-7-[(3S)-3-methylpiperazin-1-yl]-1H-isochromen-1-one] | 251 to 258 | ≤ 0.1 | **** (an EC1.5×≦0.3 nM is indicated by four stars (****)) | ***** (a fold increase >1.65 is indicated by five stars (*****))
Cc1nc(Cl)cn2cc(-c3cc4ccc(N5CCN[C@H](C)C5)cc4c(=O)o3)nc12 [Cpd 109, 3-(6-chloro-8-methylimidazo[1,2-a]pyrazin-2-yl)-7-[(3R)-3-methylpiperazin-1-yl]-1H-isochromen-1-one] | 251 to 258 | ≤ 0.1 | *** (an EC1.5× between >0.3 nM and ≦1 nM is indicated by three stars (***)) | ***** (a fold increase >1.65 is indicated by five stars (*****))
Cc1nc(Cl)cn2cc(-c3cc4ccc(N5C[C@@H](C)N[C@@H](C)C5)cc4c(=O)o3)nc12 [Cpd 110, 3-(6-chloro-8-methylimidazo[1,2-a]pyrazin-2-yl)-7-[(3R,5S)-3,5-dimethylpiperazin-1-yl]-1H-isochromen-1-one] | 261 to 266 | 0.3 to 1 | *** (an EC1.5× between >0.3 nM and ≦1 nM is indicated by three stars (***)) | **** (a fold increase between >1.5 and ≦1.65 is indicated by four stars (****))
Cc1nc(Cl)cn2cc(-c3cc4ccc(N5CCN(C)[C@H](C)C5)cc4c(=O)o3)nc12 [Cpd 111, 3-(6-chloro-8-methylimidazo[1,2-a]pyrazin-2-yl)-7-[(3R)-3,4-dimethylpiperazin-1-yl]-1H-isochromen-1-one] | 271 to 276 | 0.1 to 0.3 | *** (an EC1.5× between >0.3 nM and ≦1 nM is indicated by three stars (***)) | ***** (a fold increase >1.65 is indicated by five stars (*****))
Cc1nc(Cl)cn2cc(-c3cc4ccc(N5CCN(C)[C@@H](C)C5)cc4c(=O)o3)nc12 [Cpd 112, 3-(6-chloro-8-methylimidazo[1,2-a]pyrazin-2-yl)-7-[(3S)-3,4-dimethylpiperazin-1-yl]-1H-isochromen-1-one] | 270 to 275 | 1 to 3 | ** (an EC1.5× between >1 μM, and ≦3 nM is indicated by two stars (**)) | ***** (a fold increase >1.65 is indicated by five stars (*****))
Cc1nc(Cl)cn2cc(-c3cc4ccc(C5=CCNCC5)cc4c(=O)o3)nc12 [Cpd 113, 3-(6-chloro-8-methylimidazo[1,2-a]pyrazin-2-yl)-7-(1,2,3,6-tetrahydropyridin-4-yl)-1H-isochromen-1-one] | 269 to 273 | ≤ 0.1 | ** (an EC1.5× between >1 μM, and ≦3 nM is indicated by two stars (**)) | **** (a fold increase between >1.5 and ≦1.65 is indicated by four stars (****))
Cc1cn2cc(-c3cc4ccc(C5CCN(C)CC5)cc4c(=O)o3)nc2c(C)n1 [Cpd 114, 3-(6,8-dimethylimidazo[1,2-a]pyrazin-2-yl)-7-(1-methylpiperidin-4-yl)-1H-isochromen-1-one] | 248 to 250 | ≤ 0.1 | **** (an EC1.5×≦0.3 nM is indicated by four stars (****)) | ***** (a fold increase >1.65 is indicated by five stars (*****))
CCN1CCN(c2ccc3cc(-c4cn5cc(C)ncc5n4)oc(=O)c3c2)C[C@@H]1C [Cpd 120, 7-[(3S)-4-ethyl-3-methylpiperazin-1-yl]-3-(6-methylimidazo[1,2-a]pyrazin-2-yl)-1H-isochromen-1-one] | 255 to 260 | ≤ 0.1 | **** (an EC1.5×≦0.3 nM is indicated by four stars (****)) | ***** (a fold increase >1.65 is indicated by five stars (*****))
